# According to patent US20080293583A1, “Methods for diagnosing mood disorders” (Wyeth, priority 2003, published 2008):
# System: progenitor stem cells in the subgranular zone (SGZ) of the hippocampus
# Assay: BrdU immunostaining, cell proliferation in hippocampal SGZ after chronic antidepressant
# Type: in vivo, rat
# Details: P<0.01; for number of proliferating (BrdU-positive) cells in the SGZ compared with saline-treated control rats: FIG. 1A, chronic administration; for increase in the proliferation rate of progenitor stem cells in the SGZ: versus saline controls, 2 week systemic administration, BrdU twice a day for 4 days, n=5
# Procedure: Antidepressant treatment and BrdU dosing. Dosing of adult male Sprague Dawley rats was performed as described above for 14 days (n=10 rats per group). To evaluate the effect of chronic antidepressant treatment on proliferation of progenitor stem cells, 24 hours after the last antidepressant injection, rats were administered BrdU (Sigma, St. Louis, Mo.) (50 mg/kg rig ip injection twice a day) for 4 days prior to euthanesia. To evaluate the effect of chronic antidepressant treatment on survival of progenitor stem cells, a sub-group of rats were allowed to live for 4 weeks after BrdU injection. All rats were perfused through the ascending aorta with 50 ml of 0.9% saline, followed by 400 ml of freshly prepared 4% paraformaldehyde in PBS (pH 7.5). After 30-60 minutes post-perfusion, rat brains were removed and postfixed in 4% paraformaldehyde in PBS overnight, followed by immersion in 30% sucrose/PBS solution for 48-72 hours at 4° C. Brains were rapidly frozen on dry-ice and stored at −80° C. Brain sectioning and staining for BrdU immunoreactivity were performed as previously described by Malberg et al. (2000). Briefly, serial coronal sections of each brain were cut (35 μm thickness) through the entire hippocampus (stereotaxic plates 26-40 according to Paxinos, Watson and Emson, 1980) using a freezing microtome. Every sixth section throughout the hippocampus was processed for BrdU staining. Free-floating sections were maintained in 100 mM PBS (about 100 sections per brain). DNA denaturation of the sections was performed as follows: sections were treated with 50% formamide/50% 2×SSC (0.3 M NaCl/0.03 M sodium citrate) for 2 hours at 65° C., rinsed in PBS (2 times for 5 minutes at room temperature), incubated with 2 N HCl for 30 minutes, followed by 0.1 M boric acid buffer (pH 8.5) for 10 minutes and a final rinse in PBS. For BrdU immunostaining, sections were incubated with 3% H2O2 in PBS for 30 minutes, rinsed in PBS and blocked with 3% normal horse serum in 0.01% TritonX-100 for 30 minutes. […] All BrdU labeled cells in the subgranular zone (SGZ) were counted in each section by an experimenter blinded to the study code. […] The total number of BrdU labeled cells per section were determined and multiplied by 12 to obtain the total number of cells per dentate gyrus. […]
# In vivo studies were performed to measure the effects of antidepressant drug treatment on adult hippocampal neurogenesis by immunological methods. […] The BrdU immunostaining and quantitative results indicated a significant increase (˜33%) in the proliferation rate of progenitor stem cells in the subgranular zone (SGZ) of the hippocampus for both venlafaxine (P<0.01; n=5) and fluoxetine (P<0.01; n=5) versus saline controls. […]
Structure (SMILES),number of proliferating (BrdU-positive) cells in the SGZ compared with saline-treated control rats,increase in the proliferation rate of progenitor stem cells in the SGZ
"CNCCC(Oc1ccc(C(F)(F)F)cc1)c1ccccc1 (stereo not shown) [Fluoxetine, fluoxetine]",increased the number of proliferating cells in the SGZ,~33%
"COc1ccc(C(CN(C)C)C2(O)CCCCC2)cc1 (stereo not shown) [Venlafaxine, venlafaxine]",increased the number of proliferating cells in the SGZ,~33%
